Literature values in patent US20060063742A1, “Method of treatment for or protection against lymphedema” (priority 2004, published 2006).

How the values were obtained:
[1] = system: mice; details: intravenously, doses higher than 3750 mg/kg
[2] = system: dogs; details: intravenously, doses higher than 3750 mg/kg
[3] = system: humans; details: doses exceeding 40 g/m^2

SMILES | accepted oral LD50 [mg/kg] | adverse effects [1] | adverse effects [2] | adverse effects [3]
[Cl-].[Na+] [common table salt] | 3750 |  |  | 
O=S(=O)([O-])CCSSCCS(=O)(=O)[O-].[Na+].[Na+] [Dimesna, disodium 2,2′-dithiobis ethane sulfonate] |  | no adverse effects | no adverse effects | no adverse effects
